According to patent US20220304952A1, “COMPOSITION COMPRISING METFORMIN HCI, VITAMIN B12 AND AT LEAST ONE FLOW ADDITIVE” (DSM IP ASSETS B.V., priority 2019, published 2022):
Structures can show the parent of a compound that is named as a salt.

Assays:
[1] = Vitamin B12 content uniformity (RSD from HPLC assays); assay type: physicochemical; conditions: tablets with 549.9 mg calcium phosphate anhydrous and 0.0078 mg vitamin B12
Method: “Uniformity of content” ensures that a consistent dose of an active pharmaceutical ingredient (e.g. of vitamin B12) is maintained in each portion of a composition, even if the composition is subdivided into a large number of very small portions. By way of example, when controlling the quality of e.g. capsules or tablets, uniformity of content is determined. To do so, multiple e.g. capsules or tablets are selected at random and a suitable analytical method is applied to assay the individual content of the active pharmaceutical ingredient in each capsule or tablet. The relative standard deviation (RSD) can then be calculated. The lower the RSD, the better the uniformity of content. An RSD of more than […] is clearly unacceptable. The term “uniformity of vitamin B12 content” is used when multiple solid pharmaceutical dosage forms are selected at random and a suitable analytical method is applied to assay the individual content of vitamin B12 in each solid pharmaceutical dosage form.
Tablets were compressed with a Korsch XL 100 rotary tableting machine (Korsch A G, Berlin, Germany) using an oblong punch of 22×9 mm and compression force of 20 kN.
Vitamin B12 content uniformity was then evaluated via the standard deviation RSD (%) calculated from 10 individual assay determinations (HPLC analysis conducted by Eurofins®, Germany).

[2] = Powder flowability: mass flow rate through an orifice (Pharmatest PTG-S4); assay type: physicochemical; conditions: orifice inner diameter 15 mm; 100 g powder
Method: The powder flowability was determined with a Pharmatest PTG-S4 automated powder characterization instrument (Pharma Test Apparatebau AG, Hainburg, Germany). This system measures the flow behavior of granules and powders in compliance with the current EP <2.9.36/17> and USP <1174> pharmacopoeia as well as with the international ISO 4324 standards.
Mass flow rate (g/min) was determined via the method of flow through an orifice. Flow rate is interpreted as the time needed for a specified amount of powder (100 g) to flow through an orifice with different diameters. A free-flowing powder should be able to flow through the whole set of diameters 5, 7, 9, 10, and 15 mm. The plot of flow rate vs. orifice diameter is referred as flow curve. Three parallel measurements were performed to determine the flow rate.
Flowability of the two mixtures was then tested as described in Example 1.

Row | Molecule | vitamin B12 content uniformity rating [1] | Flow rate, measured with orifice having the indicated inner diameter [2]
1 | cyanocobalamin [vitamin B12 crystals] | extremely poor | –
2 | CN(C)C(=N)N=C(N)N [metformin HCl] | – | very low
